Literature values in patent US5391753A, “Heteroaryl substituted phenylethenyl compounds having retinoid-like biological activity” (Allergan, Inc., priority 1993, dated 1995).

System: TPA induced ODC activity (ornithine decarboxylase)
Settings: qualitative statement on retinoic acid, background

CC1=C(/C=C/C(C)=C/C=C/C(C)=C/C(=O)O)C(C)(C)CCC1 [Retinoic acid]
inhibition of induction of ODC activity by TPA: inhibits this induction of ODC activity by TPA
